The source of these data is patent US5824521A, “Saccharide composition containing trehalulose, its preparation and uses” (Kabushiki Kaisha Hayashibara Seibutsu Kagaku Kenkyujo, priority 1996, dated 1998).

The test system of data set [1] is maltose/trehalose converting enzymes. Conditions: one mM; cited from earlier work.
The next data set concerns the target T1, invertase from yeast (Saccharomyces cerevisiae, UniProt P00724).
T1 sequence (P00724 20-532): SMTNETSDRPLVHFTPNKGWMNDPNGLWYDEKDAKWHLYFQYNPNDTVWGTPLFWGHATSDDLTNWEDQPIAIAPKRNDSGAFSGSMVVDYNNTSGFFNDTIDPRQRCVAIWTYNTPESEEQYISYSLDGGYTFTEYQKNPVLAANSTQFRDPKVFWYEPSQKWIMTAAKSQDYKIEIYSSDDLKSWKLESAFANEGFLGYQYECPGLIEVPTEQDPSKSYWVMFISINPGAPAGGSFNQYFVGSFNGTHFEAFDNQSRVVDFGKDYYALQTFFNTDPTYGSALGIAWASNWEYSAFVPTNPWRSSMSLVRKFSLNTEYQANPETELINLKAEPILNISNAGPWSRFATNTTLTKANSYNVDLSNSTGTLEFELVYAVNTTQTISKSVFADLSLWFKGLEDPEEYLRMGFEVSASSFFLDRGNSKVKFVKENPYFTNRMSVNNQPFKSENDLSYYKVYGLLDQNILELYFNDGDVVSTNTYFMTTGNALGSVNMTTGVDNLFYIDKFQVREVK
In words: Hydrolysis by enzyme: invertase. The data set is classed as biochemical. The protocol: (§1) To identify the substance "X", the following confirmation tests were conducted using a high purity saccharide powder containing trehalulose prepared in Experiment 8: […]

Another data set concerns the target α-glucosidase from yeast (Saccharomyces cerevisiae, UniProt P53341). Nature of the data set: Hydrolysis by enzyme: α-glucosidase. The data set is classed as biochemical. Conditions: into glucose and fructose. The protocol: as §1
The next data set relates to dd-strain mice. In words: Acute toxicity test. Conditions: oral, 7-week-old, higher dose test impossible. The format is in vivo. From the text: No mouse died up to a dose of 15 g/kg mouse by weight and a higher dose test was impossible. Thus the toxicity of the saccharide is extremely low.
For data set [2] the following is noted: in vivo, po.
Experimental: In accordance with the method as reported by H. Atsuji et al. in "Journal of Clinical Nutrition", Vol.41, No.2, pp.200-208 (1972), 30 g of the saccharide powder rich in trehalulose with a purity of 98%, d.s.b., in Experiment 8 was prepared into a 20 w/v % aqueous solution which was then orally administered to 3 healthy male volunteers, and their blood were sampled at a prescribed time interval, followed by assaying the blood sugar- and insulin-levels. As a control glucose was used.

Counter-ions that a name gives are not always drawn.

Sequence of α-glucosidase from yeast (P53341 whole entry): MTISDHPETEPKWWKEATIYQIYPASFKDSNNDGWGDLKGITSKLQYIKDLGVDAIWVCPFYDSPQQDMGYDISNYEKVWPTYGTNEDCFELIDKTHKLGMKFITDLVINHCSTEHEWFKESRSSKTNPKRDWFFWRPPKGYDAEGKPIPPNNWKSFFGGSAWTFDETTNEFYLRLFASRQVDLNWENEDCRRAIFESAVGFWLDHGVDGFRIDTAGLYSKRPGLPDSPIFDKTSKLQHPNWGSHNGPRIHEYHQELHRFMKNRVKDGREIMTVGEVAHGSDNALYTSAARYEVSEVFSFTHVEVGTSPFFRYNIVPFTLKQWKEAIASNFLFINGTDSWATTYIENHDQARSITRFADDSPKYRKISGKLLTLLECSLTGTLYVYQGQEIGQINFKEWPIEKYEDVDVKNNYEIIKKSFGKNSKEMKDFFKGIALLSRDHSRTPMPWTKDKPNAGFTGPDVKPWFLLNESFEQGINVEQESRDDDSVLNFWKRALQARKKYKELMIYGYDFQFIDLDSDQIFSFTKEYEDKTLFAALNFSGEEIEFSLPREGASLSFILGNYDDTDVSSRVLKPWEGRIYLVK

Regarding `[Hg+2]` [Hg^++], the “Inhibition of enzyme activity” value in data set [1] is given as “inhibited”.

In the case of `O=C(CO[C@H]1O[C@H](CO)[C@@H](O)[C@H](O)[C@H]1O)[C@@H](O)[C@H](O)[C@H](O)CO` [Trehalulose, 1-O-α-D-glucopyranosyl-D-fructose], the “Hydrolysis by an invertase from yeast” value on invertase from yeast was “Not hydrolyzed”. In addition, the “Hydrolysis by α-glucosidase from yeast” value at α-glucosidase from yeast was “Hydrolyzed”. Moreover, the “Acute toxicity: lethal dose (no mouse died up to this dose)” value with dd-strain mice was more than 15000 mg/kg. Besides, in data set [2], the “Time of highest blood sugar-level after the administration” value was 0.5 to 1 h and the “Time of highest insulin-level after the administration” value lay in the range of 0.5 to 1 h.

Regarding `[Cu+2]` [Cu^++], the “Inhibition of enzyme activity” value in data set [1] is “inhibited”.

In the case of `NC(CO)(CO)CO` [Tris-HCl buffer], the “Inhibition of enzyme activity” value in data set [1] is “inhibited”.
